The results in this text go back to patent publication US6368631B1, “Fine grain carriers and medicinal composition prepared with the use of the same” (Daiichi Pharmaceutical Co., Ltd., priority 1996, dated 2002).

A short description of series [1]: In vivo evaluation of the complex of nanoparticles and PSP: plasma PSP concentration and pharmacokinetic parameters after duodenal administration. To be noted: male, SD, rats, 9.4 mg in terms of PSP per rat, n=6, mean ± S.D. The procedure: SD male rats (7 weeks old, about 200 g) were fasted for 24 hours. Under etherization, laparotomy was performed. By use of an injection needle, which was inserted through the pyrolus, the nanoparticle preparation (0.5 ml) prepared in Example 1 or the control preparation (0.5 ml) was administered duodenumally to the rats (dose: 9.4 mg in terms of PSP per rat; n=6). The cut was closed immediately after administration. Blood was collected from the carotid artery at 0.5, 1, 2, 4, 8, 12, and 24 hours following the administration. In accordance with the method of […] (Journal of Pharmaceutical Science, 79, 334, 1990), the plasma PSP concentration of each rat was measured. The plasma (0.3 ml) that had been centrifugally separated from the collected blood, purified water (0.3 ml), and aqueous 0.1 N NaOH solution (0.9 ml) were mixed. The mixture was filtered through use of an ultrafilter membrane (molecular weight of fractionation=10,000), to thereby remove proteins, etc. The filtrate was used as a sample solution. Separately, standard solutions were prepared through use of aqueous PSP-Na solutions (starting from 9.4 mg/ml in terms of PSP, a series of 2-fold dilutions) (0.3 ml each), a blank plasma from each rat (0.3 ml), and aqueous 0.1 N NaOH solution (0.9 ml) were mixed and ultrafiltered. For each of the sample solutions and standard solutions, absorption was determined through use of a spectrometer at the wavelength of 560 nm. Based on the results obtained from the standard solutions, a calibration curve was obtained, and the plasma PSP concentrations were measured. Based on the obtained time-plasma PSP concentration profile, pharmacokinetic parameters were calculated.

For series [2], the system named is ionized calcium concentration in blood. Kind of series: In vivo evaluation of nanoparticle-sCT preparations: change of blood ionized calcium concentration after peroral administration. To be noted: rats fasted 24 h, 0.5 ml preparation, single administration. Also noted: species or system SD male rats. The protocol:
To SD male rats (7 weeks old, about 200 g) fasted for 24 hours were administered perorally the nanoparticle preparation (0.5 ml) prepared in Example 3 or the control preparation (0.5 ml) (n=5). After administration, blood was collected from the tail vein of each rat in an amount of about 60 μl at 40 minutes, 80 minutes, 2, 3, 4, 6, and 8 hours following the administration.
Using a 634 Ca^++/pH analyzer (Ciba-Coning), the concentration of ionized calcium in the collected blood was measured. The difference between the ionized calcium concentration at time 0 and that at each of the aforementioned times was calculated and plotted. From the plots, presence or absence of the effect of absorption enhancement obtained through formation of nanoparticles was determined.
In this connection, sCT is known to have the pharmacological effect of reducing the blood ionized calcium concentration.
By use of the nanoparticle preparation or the control preparation obtained in Example 7, the procedure of Example 4 was repeated to thereby determine the presence or absence of the effect of absorption enhancement obtained by the formation of nanoparticles.
By use of the nanoparticle preparation or the control preparation obtained in Example 9, the procedure of Example 4 was repeated to thereby determine the presence or absence of the effect of absorption enhancement obtained by the formation of nanoparticles. […]

As for `O=S1(=O)OC(c2ccc(O)cc2)(c2ccc(O)cc2)c2ccccc21` [Aq. PSP-Na sol. (control prep.), phenolsulfonphthalein], in series [1], the AUC(0-inf) (in general, total exposure, with the tail of the curve extrapolated) worked out at 9970 ± 2200 ng·h/mL; the highest level (Cmax) was 2000 ± 290 ng/mL; the Tmax (in general, the time from dosing to the highest level) was determined as 0.92 ± 0.2 h. Also, the MRT last in series [1] (read-out: MRT0-24 h) was determined as 4.57 ± 0.34 h.

As for “salmon calcitonin [aqueous sCT solution]”, in series [2], the “effect of reducing the blood ionized calcium concentration” value was “slightly decreased”.
